Measured values as given in PMC6376162, “HEXIM1 Peptide Exhibits Antimicrobial Activity Against Antibiotic Resistant Bacteria Through Guidance of Cell Penetrating Peptide” (Frontiers in Microbiology, 2019).
Converted amounts (≈) assume the structure as drawn. Residues, ends and D or L forms follow the SMILES beside them.

Legend:
[1] = tested on: HaCaT human keratinocyte cell line; test: Viability assay for mammalian cells (CellTiter-Glo); format: cell-based; settings: overnight; for cytotoxicity against HaCat cells: 30 μM; for toxicity against HaCaT cells at the highest concentration: 100 μM
Method: (§1) Bacterial strains were either purchased from American Type Culture Collection (ATCC, United States) or provided by National University Hospital, Singapore. Prior to assays, all bacteria, except for Enterococcus faecalis, were grown overnight to stationary phase at 37°C in Luria Bertani (LB) broth (Novagen, Germany). The overnight cultures were 10-fold diluted in fresh cation-adjusted Mueller Hinton II broth (MHBII) (Becton Dickinson, United States) and grown for additional few hours at 37°C to obtain mid-log phase culture. E. faecalis strains were grown in M17 broth (Becton Dickenson, United States) for both overnight and mid-log phase culturing. Human keratinocyte cell line, HaCaT, was purchased from Creative Bioarray (United States) and cultured in Dulbecco’s Modified Eagle’s medium with 4.5 g/L glucose, 2 mM L-glutamine, and 10% fetal bovine serum.
HaCat cells (1 × 10^5 cells mL^−1) were seeded in a 96-well clear-bottomed white plate (Corning) in Dulbecco’s Modified Eagle’s medium with 4.5 g/L glucose, 2 mM L-glutamine, and 10% fetal bovine serum and incubated overnight at 37°C. On the following day, cells were treated with the indicated peptides at serial-diluted concentrations and incubated overnight. CellTiter-Glo reagent (Promega) was utilized to determine the cell viability based on the manufacturer’s instructions.

[2] = tested on: P. aeruginosa 544; format: cell-based, Pseudomonas aeruginosa; settings: 544, 20 h
Method: as §1
(§2) Minimum inhibition concentrations (MICs) were determined by using broth microdilution method in a 96-well microtiter plate according to guidelines of the Clinical and Laboratory Standards Institute ([CLSI, 2012]). Briefly, mid-log phase cultures were diluted with MHBII and added to wells containing serially diluted peptides to give final cell concentration of 5 × 10^5 cells ml^−1. Peptides were prepared in twofold serial dilution series to give a final concentration range from 2 to 128 μM. Cecropin P1 (CECP1) and Cap11-1-18m^2 (CapM2) treated cells were used as positive controls, while untreated cells were used as a negative control.
(§3) To further assess the potency of peptides, wells with no visible growth from MIC tests were subsequently plated on LB agar plates and incubated overnight at 37°C. […] Both MIC and MBC assays were conducted on three to five separate occasions and if results were within one doubling dilutions of each other, the highest reading was recorded for analysis.

[3] = tested on: E. faecalis VRE; format: cell-based, Enterococcus faecalis; settings: 20 h
Method: as §1, §2, §3

[4] = tested on: S. aureus 43300; format: cell-based, Staphylococcus aureus; settings: 43300, 20 h
Method: as §1, §2, §3

[5] = tested on: Enterococcus faecalis SEN; format: cell-based; settings: 20 h
Method: as §1, §2, §3

[6] = tested on: Escherichia coli 25922; format: cell-based; settings: 25922, 20 h
Method: as §1, §2, §3

[7] = tested on: Escherichia coli BAA2523; format: cell-based; settings: BAA2523, 20 h
Method: as §1, §2, §3

[8] = tested on: Pseudomonas aeruginosa 27853; format: cell-based; settings: 27853, 20 h
Method: as §1, §2, §3

[9] = tested on: Staphylococcus aureus 29213; format: cell-based; settings: 29213, 20 h
Method: as §1, §2, §3

[10] = tested on: panel of antibiotic sensitive and resistant bacteria; format: cell-based; settings: 20 h
Method: as §1, §2, §3

[11] = tested on: mammalian cells; parameters: method as in Neo et al., 2016; settings: cited from earlier work

Structure (SMILES)	cytotoxicity against HaCat cells [1]	toxicity against HaCaT cells at the highest concentration [1]	MBC [2] [µM]	MBC [3] [µM]	MIC [3] [µM]	MIC [4] [µM]	MBC [5] [µM]	MIC [5] [µM]	MBC [6] [µM]	MIC [6] [µM]	MBC [7] [µM]	MIC [7] [µM]	MBC [8] [µM]	MIC [8] [µM]	MBC [9] [µM]	MIC [9] [µM]	MIC [2] [µM]	MBC [4] [µM]	further results
CC[C@H](C)[C@H](NC(=O)[C@H](CCCCN)NC(=O)[C@@H](NC(=O)[C@H](CCC(N)=O)NC(=O)[C@@H](N)CCCNC(=N)N)[C@@H](C)CC)C(=O)N[C@@H](Cc1c[nH]c2ccccc12)C(=O)N[C@@H](Cc1ccccc1)C(=O)N[C@@H](CCC(N)=O)C(=O)N[C@@H](CC(N)=O)C(=O)N[C@@H](CCCNC(=N)N)C(=O)N[C@@H](CCCNC(=N)N)C(=O)N[C@@H](Cc1c[nH]c2ccccc12)C(=O)NCC(=O)NCC(=O)N[C@@H](CCC(N)=O)C(=O)N[C@@H](CC(C)C)C(=O)NCC(=O)N[C@@H](CCCCN)C(=O)N[C@@H](CCCCN)C(=O)N[C@@H](CCCCN)C(=O)N[C@@H](Cc1c[nH]cn1)C(=O)N[C@@H](CCCNC(=N)N)C(=O)N[C@@H](CCCNC(=N)N)C(=O)N[C@@H](CCCNC(=N)N)C(=O)N1CCC[C@H]1C(=O)N[C@@H](CO)C(=O)N[C@@H](CCCCN)C(=O)N[C@@H](CCCCN)C(=O)N[C@@H](CCCCN)C(=O)N[C@@H](CCCNC(=N)N)C(=O)N[C@@H](Cc1c[nH]cn1)C(=O)N[C@@H](Cc1c[nH]c2ccccc12)C(=O)O [Pen-BR] (H-RQIKIWFQNRRWGGQLGKKKHRRRPSKKKRHW-OH)	little or no cytotoxicity	toxic activity																	effect on HaCaT cells under lower concentrations ([1]; below 100 μM (10, 30, 50 μM)): did not cause any significant effects
CC(C)C[C@H](NC(=O)[C@@H](N)CCC(N)=O)C(=O)NCC(=O)N[C@@H](CCCNC(=N)N)C(=O)N[C@@H](CCCNC(=N)N)C(=O)N[C@@H](CCCNC(=N)N)C(=O)N[C@@H](Cc1c[nH]cn1)C(=O)N[C@@H](CCCNC(=N)N)C(=O)N[C@@H](CCCNC(=N)N)C(=O)N[C@@H](CCCNC(=N)N)C(=O)N1CCC[C@H]1C(=O)N[C@@H](CO)C(=O)N[C@@H](CCCNC(=N)N)C(=O)N[C@@H](CCCNC(=N)N)C(=O)N[C@@H](CCCNC(=N)N)C(=O)N[C@@H](CCCNC(=N)N)C(=O)N[C@@H](Cc1c[nH]cn1)C(=O)N[C@@H](Cc1c[nH]c2ccccc12)C(=O)O [BR-RRR12] (H-QLGRRRHRRRPSRRRRHW-OH)			>128	>128	16 (≈ 40.4 µg/mL)	16 (≈ 40.4 µg/mL)	>128	32 (≈ 80.7 µg/mL)	64 (≈ 161 µg/mL)	64 (≈ 161 µg/mL)	>128	>128	>128	>128	>128	32 (≈ 80.7 µg/mL)			MICs (range over inhibited strains) [10]: 16 to 64 µM
CC[C@H](C)[C@H](NC(=O)[C@H](CC(C)C)NC(=O)[C@H](CCCCN)NC(=O)[C@H](CC(C)C)NC(=O)[C@H](CC(C)C)NC(=O)[C@H](CCCCN)NC(=O)[C@H](CCCNC(=N)N)NC(=O)[C@H](Cc1ccccc1)NC(=O)[C@H](CC(C)C)NC(=O)[C@H](CCCCN)NC(=O)[C@H](CCCNC(=N)N)NC(=O)[C@H](CC(C)C)NC(=O)[C@@H](N)CCCCN)C(=O)N[C@@H](CCCNC(=N)N)C(=O)N[C@@H](CCCCN)C(=O)N[C@@H](CC(C)C)C(=O)N[C@@H](CC(C)C)C(=O)N[C@@H](CCCNC(=N)N)C(=O)O [CapM2, Cap11-1-18m^2, reference compound] (H-KLRKLFRKLLKLIRKLLR-OH)			32 (≈ 74.8 µg/mL)	16 (≈ 37.4 µg/mL)	16 (≈ 37.4 µg/mL)	16 (≈ 37.4 µg/mL)	16 (≈ 37.4 µg/mL)	16 (≈ 37.4 µg/mL)	32 (≈ 74.8 µg/mL)	16 (≈ 37.4 µg/mL)	64 (≈ 150 µg/mL)	32 (≈ 74.8 µg/mL)	32 (≈ 74.8 µg/mL)	16 (≈ 37.4 µg/mL)	32 (≈ 74.8 µg/mL)	16 (≈ 37.4 µg/mL)	16 (≈ 37.4 µg/mL)	16 (≈ 37.4 µg/mL)	
CC[C@H](C)[C@H](NC(=O)[C@H](CCCCN)NC(=O)[C@@H](NC(=O)[C@H](CCC(N)=O)NC(=O)[C@@H](N)CCCNC(=N)N)[C@@H](C)CC)C(=O)N[C@@H](Cc1c[nH]c2ccccc12)C(=O)N[C@@H](Cc1ccccc1)C(=O)N[C@@H](CCC(N)=O)C(=O)N[C@@H](CC(N)=O)C(=O)N[C@@H](CCCNC(=N)N)C(=O)N[C@@H](CCCNC(=N)N)C(=O)N[C@@H](Cc1c[nH]c2ccccc12)C(=O)NCC(=O)NCC(=O)N[C@@H](CCC(N)=O)C(=O)N[C@@H](CC(C)C)C(=O)NCC(=O)N[C@@H](CCCNC(=N)N)C(=O)N[C@@H](CCCNC(=N)N)C(=O)N[C@@H](CCCNC(=N)N)C(=O)N[C@@H](Cc1c[nH]cn1)C(=O)N[C@@H](CCCNC(=N)N)C(=O)N[C@@H](CCCNC(=N)N)C(=O)N[C@@H](CCCNC(=N)N)C(=O)N1CCC[C@H]1C(=O)N[C@@H](CO)C(=O)N[C@@H](CCCNC(=N)N)C(=O)N[C@@H](CCCNC(=N)N)C(=O)N[C@@H](CCCNC(=N)N)C(=O)N[C@@H](CCCNC(=N)N)C(=O)N[C@@H](Cc1c[nH]cn1)C(=O)N[C@@H](Cc1c[nH]c2ccccc12)C(=O)O [Pen-RRR] (H-RQIKIWFQNRRWGGQLGRRRHRRRPSRRRRHW-OH)	little or no cytotoxicity	toxic activity																	
CC[C@H](C)[C@H](NC(=O)CNC(=O)[C@H](CCC(=O)O)NC(=O)[C@H](CO)NC(=O)[C@@H](NC(=O)[C@H](CCCNC(=N)N)NC(=O)[C@H](CCCCN)NC(=O)[C@H](CCCCN)NC(=O)[C@H](C)NC(=O)[C@H](CO)NC(=O)[C@H](CC(N)=O)NC(=O)[C@H](CCC(=O)O)NC(=O)[C@H](CC(C)C)NC(=O)[C@H](CCCCN)NC(=O)[C@H](CCCCN)NC(=O)[C@H](C)NC(=O)[C@@H](NC(=O)[C@H](CCCCN)NC(=O)[C@H](CO)NC(=O)[C@H](CC(C)C)NC(=O)[C@H](Cc1c[nH]c2ccccc12)NC(=O)[C@@H](N)CO)[C@@H](C)O)[C@@H](C)CC)C(=O)N[C@@H](C)C(=O)N[C@H](C(=O)N[C@@H](C)C(=O)N[C@H](C(=O)N[C@@H](CCC(N)=O)C(=O)NCC(=O)NCC(=O)N1CCC[C@H]1C(=O)N[C@@H](CCCNC(=N)N)C(=O)O)[C@@H](C)CC)[C@@H](C)CC [CECP1, Cecropin P1, reference compound] (H-SWLSKTAKKLENSAKKRISEGIAIAIQGGPR-OH)			32 (≈ 107 µg/mL)	>128	>128	>128	>128	>128	4 (≈ 13.4 µg/mL)	4 (≈ 13.4 µg/mL)	64 (≈ 214 µg/mL)	64 (≈ 214 µg/mL)	32 (≈ 107 µg/mL)	16 (≈ 53.4 µg/mL)	>128	>128	16 (≈ 53.4 µg/mL)	>128	
CC(C)C[C@H](NC(=O)[C@@H](N)CCC(N)=O)C(=O)NCC(=O)N[C@@H](CCCCN)C(=O)N[C@@H](CCCCN)C(=O)N[C@@H](CCCCN)C(=O)N[C@@H](Cc1c[nH]cn1)C(=O)N[C@@H](CCCNC(=N)N)C(=O)N[C@@H](CCCNC(=N)N)C(=O)N[C@@H](CCCNC(=N)N)C(=O)N1CCC[C@H]1C(=O)N[C@@H](CO)C(=O)N[C@@H](CCCCN)C(=O)N[C@@H](CCCCN)C(=O)N[C@@H](CCCCN)C(=O)N[C@@H](CCCNC(=N)N)C(=O)N[C@@H](Cc1c[nH]cn1)C(=O)N[C@@H](Cc1c[nH]c2ccccc12)C(=O)O [BR] (H-QLGKKKHRRRPSKKKRHW-OH)			>128	>128	>128		>128	>128	>128	>128	>128	>128	>128	>128	>128	128 (≈ 301 µg/mL)	>128	>128	cytotoxic effects on mammalian cells [11]: failed to cause any detectable cytotoxic effects
